The values that follow come from US20130030001A1 (priority 2008, published 2013).

Where a name gives a salt, the structure may show the parent alone.

T1 sequence (P20309 whole entry): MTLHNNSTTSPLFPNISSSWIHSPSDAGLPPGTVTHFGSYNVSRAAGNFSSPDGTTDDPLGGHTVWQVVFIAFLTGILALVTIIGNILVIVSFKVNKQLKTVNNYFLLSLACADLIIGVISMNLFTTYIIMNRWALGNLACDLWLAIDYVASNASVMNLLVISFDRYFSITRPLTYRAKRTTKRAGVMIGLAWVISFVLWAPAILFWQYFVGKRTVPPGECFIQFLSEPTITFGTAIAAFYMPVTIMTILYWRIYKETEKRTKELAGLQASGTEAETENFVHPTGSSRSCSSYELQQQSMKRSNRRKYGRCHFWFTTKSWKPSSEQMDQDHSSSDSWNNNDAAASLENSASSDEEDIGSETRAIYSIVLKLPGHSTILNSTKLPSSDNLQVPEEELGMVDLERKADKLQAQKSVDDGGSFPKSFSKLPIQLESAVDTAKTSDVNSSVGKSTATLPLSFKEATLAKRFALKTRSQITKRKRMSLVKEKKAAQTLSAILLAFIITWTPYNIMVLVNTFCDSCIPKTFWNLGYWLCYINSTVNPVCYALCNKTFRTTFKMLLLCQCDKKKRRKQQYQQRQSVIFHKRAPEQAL

This assay concerns the target T1, human muscarinic acetylcholine M3 receptor (Homo sapiens, UniProt P20309).
T1 construct: expressed in transfected cells; host or cells: CHO-K1 (Chinese Hamster Ovary) cell membranes
The assay can be described thus: biochemical. As to conditions: M3 binding IC50. Type of assay: binding.
As usually defined, the IC50 is the concentration needed to halve the response being measured. Low readings indicate inhibition by little substance, high ones a need for much substance. Consider `O=C(C[N+]12CCC(CC1)[C@@H](OC(=O)C1(c3ccccc3)CCCCCC1)C2)Nc1cc(F)cc(F)c1` [Example 35, (R)-1-[(3,5-Difluoro-phenylcarbamoyl)-methyl]-3-(1-phenyl-cycloheptanecarbonyloxy)-1-azonia-bicyclo[2.2.2]octane bromide], for which the IC50 is 2 to 10 nM.
To `Cc1cccc(NC(=O)C[N+]23CCC(CC2)[C@@H](OC(=O)C2(c4ccccc4)CCCCCC2)C3)c1` [Example 47, (R)-3-(1-Phenyl-cycloheptanecarbonyloxy)-1-(m-tolylcarbamoyl-methyl)-1-azonia-bicyclo[2.2.2]octane bromide] belongs 2 to 10 nM.
As for `O=C(C[N+]12CCC(CC1)[C@@H](OC(=O)C1(c3ccccc3)CCCCCC1)C2)Nc1cccc(F)c1F` [Example 24, (R)-1-[(2,3-Difluoro-phenylcarbamoyl)-methyl]-3-(1-phenyl-cycloheptanecarbonyloxy)-1-azonia-bicyclo[2.2.2]octane bromide], the half-inhibitory concentration (IC50) was under 2 nM.
To `O=C(O[C@H]1C[N+]2(CCOc3ccc(F)cc3)CCC1CC2)C1(c2ccccc2)CCCCCC1` [Example 26, (R)-1-[2-(4-Fluoro-phenoxy)-ethyl]-3-(1-phenyl-cycloheptanecarbonyloxy)-1-azonia-bicyclo[2.2.2]octane formate] belongs under 2 nM; to `Cc1ccc(NC(=O)C[N+]23CCC(CC2)[C@@H](OC(=O)C2(c4ccccc4)CCCCCC2)C3)nn1` [Example 49, (R)-1-[(6-Methyl-pyridazin-3-ylcarbamoyl)-methyl]-3-(1-phenyl-cycloheptanecarbonyloxy)-1-azonia-bicyclo[2.2.2]octane bromide], under 2 nM.
`O=C(NCC[N+]12CCC(CC1)[C@@H](OC(=O)C1(c3ccccc3)CCCCCC1)C2)c1cnccn1` [Example 55, (R)-3-(1-Phenyl-cycloheptanecarbonyloxy)-1-{2-[(pyrazine-2-carbonyl)-amino]-ethyl}-1-azonia-bicyclo[2.2.2]octane bromide] showed an IC50 of 2 to 10 nM.
Molecule `O=C(C[N+]12CCC(CC1)[C@@H](OC(=O)C1(c3ccccc3)CCCCCC1)C2)Nc1cncc(F)c1` [Example 28, (R)-1-[(5-Fluoro-pyridin-3-ylcarbamoyl)-methyl]-3-(1-phenyl-cycloheptanecarbonyloxy)-1-azonia-bicyclo[2.2.2]octane chloride] gave a half-inhibitory concentration (IC50) of 2 to 10 nM.
Next, `O=C(NCCC[N+]12CCC(CC1)[C@@H](OC(=O)C1(c3ccccc3)CCCCCC1)C2)c1ccccn1` [Example 57, (R)-3-(1-Phenyl-cycloheptanecarbonyloxy)-1-{3-[(pyridine-2-carbonyl)-amino]-propyl}-1-azonia-bicyclo[2.2.2]octane bromide]: 2 to 10 nM; `Cc1cc(NC(=O)C[N+]23CCC(CC2)[C@@H](OC(=O)C2(c4ccccc4)CCCCCC2)C3)ncn1` [Example 59, (R)-1-[(6-Methyl-pyrimidin-4-ylcarbamoyl)-methyl]-3-(1-phenyl-cycloheptanecarbonyloxy)-1-azonia-bicyclo[2.2.2]octane chloride]: 2 to 10 nM; `O=C(C[N+]12CCC(CC1)[C@@H](OC(=O)C1(c3ccccc3)CCCCCC1)C2)Nc1ccccc1F` [Example 23, (R)-1-[(2-Fluoro-phenylcarbamoyl)-methyl]-3-(1-phenyl-cycloheptanecarbonyloxy)-1-azonia-bicyclo[2.2.2]octane bromide]: under 2 nM.
To `O=C(O[C@H]1C[N+]2(CCOCCc3ccccc3)CCC1CC2)C1(c2ccccc2)CCCCCC1` [Example 37, (R)-1-(2-Phenethyloxy-ethyl)-3-(1-phenyl-cycloheptanecarbonyloxy)-1-azonia-bicyclo[2.2.2]octane bromide] belongs under 2 nM; to `O=C(C[N+]12CCC(CC1)[C@@H](OC(=O)C1(c3ccccc3)CCCCCC1)C2)Nc1cncnc1` [Example 52, (R)-3-(1-Phenyl-cycloheptanecarbonyloxy)-1-(pyrimidin-5-ylcarbamoylmethyl)-1-azonia-bicyclo[2.2.2]octane chloride], under 2 nM.
